Tests used:
[1] = test system: neuroblastoma cells SK—N—SH cells; experiment: Total Aβ level in supernatant of SK-N-SH cells (ELISA); format: cell-based; conditions: 24 hours
Experimental: Aβ is the main pathogenic protein of AD. The inventors investigated whether PL402 has an effect on inhibiting Aβ production by detecting the level of Aβ in neuroblastoma cells SK—N—SH cells (which can secrete Aβ).
Culture of SK—N—SH and detection of Aβ: SK—N—SH cells were cultured in DMEM, plated in a 24-well plate and cultured for 24 hours. PL402 (0, 10, 30, 100, or 300 μM) was added, and then incubated for 24 hours. The supernatant was collected and the total Aβ protein level was detected by ELISA.

[2] = test system: APP/PS1 transgenic male mice (AD mice); experiment: Morris water maze test in AD mice; format: in vivo; conditions: 50 mg/kg daily intragastric, 90 days; for learning and memory abilities of AD mice after administration: Morris water maze
Experimental: Twenty 5-6-month-old APP/PS1 transgenic male mice (AD mice) were selected and divided into a model group and a polysaccharide administration group according to the random number table method. PL402 was administered daily by intragastric administration (50 mg/kg), and 10 non-transgenic mice were used in a negative control group (without administration). After 90 days of consecutive administration, Morris water maze behavior test was used to detect the effect of PL402 on the learning and cognitive functions of APP/PS1 mice.
In this experiment, a classic Morris water maze test procedure was used, which includes a place navigation test and a space exploration test. The duration of the experiment was 7 days in total, and the space exploration test was introduced at Days 4 and 7.
The selection of animals and the “Morris water maze experiment” was performed as described in Example 3, to detect the effect of PL404 on the animal learning and memory abilities.

mouse BV-2 cells = experiment: Expression of inflammatory factors in LPS-stimulated BV-2 cells (QPCR); format: cell-based; conditions: LPS 300 ng/ml, compound 10-300 μM, 24 hours
Experimental: Neuroinflammation in the brain of AD is one of the causes of cognitive decline. Microglia are key cells that mediate neuroinflammation. The inventors studied whether PL402 is effective in inhibiting neuroinflammation by detecting the expression of inflammatory factors on mouse BV-2 cells.
BV-2 cells culture and stimulation: BV-2 cells were cultured in DMEM, plated in a 24-well plate and cultured for 24 hours. Then PL402 (0, 10, 30, 100, or 300 μM) and LPS (300 ng/ml) were added, and then incubated for 24 hours. RNA was extracted with Trizol, and the expression of related inflammatory factors was detected by QPCR.

[3] = test system: human neural progenitor cell (differentiated by humanized iPSC); experiment: EdU incorporation, proliferation of human neural progenitor cells; format: cell-based; conditions: dosage 0, 1, 3, 10, 30 or 100 μM, vs untreated control
Experimental: The inventors investigated whether PL404 has the effect on promoting proliferation by detecting the EdU incorporation of a human neural progenitor cell (differentiated by humanized iPSC). The dosage of PL404 was 0, 1, 3, 10, 30, or 100 μM.
The method similar to that in Example 7 was used, except that compound PL404 was replaced by PL405, and by detecting the EdU incorporation of human neural progenitor cells, whether PL405 has the effect on promoting proliferation was investigated.

SMILES | production of Aβ (total Aβ protein level) ([1]; compound 10-300 μM, ELISA of supernatant) | concentration at which the inhibition of Aβ production is most desirable ([1]; tested 0, 10, 30, 100, 300 μM) | learning and memory abilities of AD mice after administration [2] | escape latency (latency to reach the platform) compared with the model group ([2]; place navigation test, 50 mg/kg) | expression of inflammatory factor IL-1β (mouse BV-2 cells) | expression of inflammatory factor IL-6 (mouse BV-2 cells) | increase of human neural progenitor cell proliferation level compared with the control group [3]
COc1cc(/C=C/C(=O)O[C@@H]2OC(C)[C@H](O[C@@H]3OC(C)[C@H](O)C(O)C3O)C(O)C2O)ccc1O (stereo partly drawn) [PL402] | significantly inhibit | 100 µM | significantly improved | statistically significant decrease | significantly inhibit | significantly inhibit | 
COc1cc(/C=C/C(=O)OC2C(C)OC(OC3C(C)OC(O)C4OC(C)(C)OC34)C(O)C2O)ccc1O (stereo not drawn) [PL404] |  |  | significantly improved |  |  |  | about 30%
COc1cc(/C=C/C(=O)OC2C(C)OC(OC3C(C)OC(O)C(O)C3O)C(O)C2O)ccc1O (stereo not drawn) [PL405] |  |  |  |  |  |  | about 60%

Source: patent US11578092B2, “Compound for preventing or treating neurodegenerative disease and application thereof” (Shanghai Pharmaceuticals Holding Co., Ltd., priority 2018, dated 2023)
